Test results: PMC10041525, “New Dual Inhibitors of Bacterial Topoisomerases with Broad-Spectrum Antibacterial Activity and In Vivo Efficacy against Vancomycin-Intermediate Staphylococcus aureus” (Journal of Medicinal Chemistry, 2023)
Where two headings read alike, the source gives them in different places.

Tested on: 100 A. baumannii strains (50 MDR, 50 non-MDR)
Test: MIC broth microdilution at IHMA Europe, panel of 100 strains
Format: cell-based
Conditions: Acinetobacter baumannii, read-out: MIC

Measured: MIC

C[C@@H](O)[C@H]1C(=O)N2C(C(=O)O)=C(S[C@@H]3CN[C@H](C(=O)N(C)C)C3)[C@H](C)[C@H]12 [Meropenem, meropenem]
≤ 0.06 µg/mL: A. baumannii IHMA 1790916, Romania 2018, Non-MDR | A. baumannii IHMA 1926285, Qatar 2018, Non-MDR
> 16 µg/mL: A. baumannii IHMA 1769782, Israel 2018, MDR | A. baumannii IHMA 1791877, Israel 2018, MDR | A. baumannii IHMA 1792961, Jordan 2018, MDR | A. baumannii IHMA 1814276, Lebanon 2018, MDR | A. baumannii IHMA 1815198, Kuwait 2018, MDR | A. baumannii IHMA 1815856, Israel 2018, MDR | A. baumannii IHMA 1849819, Kuwait 2018, MDR | A. baumannii IHMA 1926288, Qatar 2018, MDR | A. baumannii IHMA 1963732, Turkey 2019, MDR | A. baumannii IHMA 1971673, Latvia 2019, MDR | A. baumannii IHMA 1983151, Greece 2019, MDR | A. baumannii IHMA 1984665, Lithuania 2019, MDR | A. baumannii IHMA 1986738, Turkey 2019, MDR | A. baumannii IHMA 1987162, Croatia 2019, MDR | A. baumannii IHMA 1993615, Turkey 2019, MDR | A. baumannii IHMA 1994284, Italy 2019, MDR | A. baumannii IHMA 2003279, Turkey 2019, MDR | A. baumannii IHMA 2020360, Croatia 2019, MDR | A. baumannii IHMA 2031524, Greece 2019, MDR | A. baumannii IHMA 2035089, Serbia 2019, MDR | A. baumannii IHMA 2038976, Hungary 2019, MDR | A. baumannii IHMA 2051503, Serbia 2019, MDR | A. baumannii IHMA 2156634, Turkey 2020, MDR | A. baumannii IHMA 2156709, Turkey 2020, MDR
0.12 µg/mL: A. baumannii IHMA 1790317, Czech Republic 2018, Non-MDR | A. baumannii IHMA 1829500, Georgia 2018, Non-MDR | A. baumannii IHMA 1849829, Kuwait 2018, Non-MDR | A. baumannii IHMA 1863631, France 2018, Non-MDR | A. baumannii IHMA 1884428, Italy 2018, Non-MDR | A. baumannii IHMA 1900538, Turkey 2018, Non-MDR | A. baumannii IHMA 1997936, Morocco 2019, Non-MDR | A. baumannii IHMA 2019315, Romania 2019, Non-MDR | A. baumannii IHMA 2031511, Greece 2019, Non-MDR | A. baumannii IHMA 2058329, Slovenia 2019, Non-MDR | A. baumannii IHMA 2065587, France 2019, Non-MDR | A. baumannii IHMA 2129256, Qatar 2019, Non-MDR
1 µg/mL: A. baumannii IHMA 2014931, South Africa 2019, Non-MDR
0.5 µg/mL: A. baumannii IHMA 1830924, United Kingdom 2018, Non-MDR | A. baumannii IHMA 1977077, Kuwait 2019, Non-MDR
0.25 µg/mL: A. baumannii IHMA 1769393, Lithuania 2018, Non-MDR | A. baumannii IHMA 1769910, Israel 2018, Non-MDR | A. baumannii IHMA 1795669, Tunisia 2018, Non-MDR | A. baumannii IHMA 1821468, South Africa 2018, Non-MDR | A. baumannii IHMA 1857118, Slovenia 2018, Non-MDR | A. baumannii IHMA 1870054, United States 2018, Non-MDR | A. baumannii IHMA 1884990, Germany 2018, Non-MDR | A. baumannii IHMA 1913773, Kenya 2018, Non-MDR | A. baumannii IHMA 1957343, Portugal 2019, Non-MDR | A. baumannii IHMA 1967860, Spain 2019, Non-MDR | A. baumannii IHMA 1975075, Israel 2019, Non-MDR | A. baumannii IHMA 1986678, Turkey 2019, Non-MDR | A. baumannii IHMA 1995161, Czech Republic 2019, Non-MDR | A. baumannii IHMA 1999178, Belgium 2019, Non-MDR | A. baumannii IHMA 2014367, Jordan 2019, Non-MDR | A. baumannii IHMA 2034657, Tunisia 2019, Non-MDR | A. baumannii IHMA 2035134, Serbia 2019, Non-MDR | A. baumannii IHMA 2099294, United Kingdom 2019, Non-MDR | A. baumannii IHMA 2157614, Australia 2020, Non-MDR
16 µg/mL: A. baumannii IHMA 2154584, Israel 2020, MDR | A. baumannii IHMA 2155340, Kenya 2020, MDR
